Measurements: patent publication US10059669B2, “2-amino-3,5-difluoro-3,6-dimethyl-6-phenyl-3,4,5,6-tetrahydropyridines as BACE1 inhibitors for treating alzheimer's disease” (H. Lundbeck A/S, priority 2014, dated 2018)
Where two headings read alike, the source gives them in different places.

What was measured:
Aβ40 = assay: Assessment of Aβ levels in rat brain and plasma following BACE1 inhibition (Aβ40 ELISA); format: in vivo; settings: 180 minutes, vs vehicle
Protocol: Assessment of Aβ Levels in Rat Brain and Plasma Following BACE1 Inhibition. Animals.
All rat care and experimental procedures were approved by Lundbeck Veterinary Staff, according to Danish legislature. The rats were maintained in a barrier facility with a 12/12-h light/dark cycle and ad libitum food and water access.
(§1) Young adult Male Sprague Dawley rats of approximately 250 g weight were purchased from Charles River and received 0-30 mg/kg of vehicle (10% HP betaCD+1M MeSO4, pH 2.5) or test compounds (dissolved in vehicle) only by oral gavage (p.o). The compounds are dosed at a volume of 5 ml/kg. Cohorts of 5-10 animals were established for each treatment condition.
(§2) At T=180 minutes after initial dosing the animals were stunned and decapitated with a guillotine. Trunk-blood was sampled in EDTA coated tubes after decapitation of the animal. The blood was centrifuged at 2200G at 4° C. for 15 minutes and the plasma was collected and frozen at −80° C. The blood was aliquoted for Aβ ELISA and DMPK analysis. Immediately following sacrifice, the brain was extracted and split into 2 halves. The right hemibrains were snap frozen on dry ice and stored at −80° C. The left half was dissected; with the front forebrain taken for Aβ ELISA and the remainder used for DMPK analysis. These samples were also snap frozen on dry ice and stored at −80° C. until use for analysis.
The cortex samples were thawed slightly on wet ice before they were homogenized with a small volume dispersing instrument (T10 basic ULTRA-TURRAX®) which was set at speed 5 for approximately 5-7 sec. The tissue was processed in a 10 times volume of the weight, for example 100 mg of tissue was homogenized in 1000 μL of Homogenization buffer. Homogenization buffer: 50 ml Milli Q water+50 nM NaCl+0.2% Diethylamin (DEA)+1 tablet of Complete Protease inhibitor cocktail+1 nM 4-(2-aminoethyl) benzenesulfonyl fluoride hydrochloride irreversible serine protease inhibitor (AEBSF).
After homogenization 450 μL aliquots of the samples are collected into a 1.5 ml Eppendorf tube and placed on wet ice, 0.5% NP-40 (50 ul) was added to all samples and then they were incubated on ice for 30 min. After which all samples were sonicated using an Ultrasonic homogenizer with 20 kHz homogeneous sound (SONOPLUS HD2070, Bandelin Electronic) 10 pulse set at 12-13% power to extract all the Aβ species. The samples were then centrifuged (Ole Dich 157 MPRF Micro centrifuge) at 20000G for 20 minutes at 4° C. After centrifugation 285 μL of the supernatant was pipetted into 600 μL microtubes tubes and neutralized with 15 μL of 1M Tris-HCL buffer.
WAKO 294-62501 Human/Rat Abeta amyloid (40) kit was used for all ELISA analyses. 30 μL plasma samples or 30 μL of the cortex supernatants generated as described above were placed in 600 μL microtubes tubes on wet ice. To this 30 μL of 8M Urea (AppliChem A1049, 9025) are added to generate a 2-fold dilution. Both plasma and cortex supernatants are incubated on ice for 30 min. Standard rows were prepared from the standard peptide stock provided in the kit and standard diluent containing 1.6M Urea (200 μL 8M Urea+800 μL of standard diluent) and 0.8M Urea (400 μL 8M Urea+3600 μL Standard diluent). A serial 2-fold dilution of A340 from […] to 0 μmol/L was prepared for the assay.
After incubation with urea, all samples were further diluted by addition of 5 times standard diluent from the Kit. This was done by adding 240 μL Standard Diluent to 60 μL sample/urea mixture, which was then mixed well. 100 μL of each diluted sample was pipetted into designated wells of the ELISA plate in duplicates. The plate was then covered and incubated overnight at 4° C. The following day, the ELISA kit was brought to room temperature before use. The incubated plate was washed 5 times with the 20× washing solution diluted in Milli Q water. 100 μL HRP-conjugate was applied to each well, and the plate was covered and incubates at 4° C. for 1 hr. The wash was repeated again for 5 times. […]

[1] = Bioanalysis of brain and plasma samples (exposure, UPLC-MS/MS); format: in vivo, rat; settings: male, Sprague Dawley, po, 3 hours post dose; for Kp at 3 h: brain and plasma, Rat, read-out: Brain/Plasma ratio; for concentration at 3 h: read-out: Exp
Protocol: as §1
as §2, with “for analysis. […]” for “for analysis.”
TC was determined in plasma and brain homogenate using UltraPerformance LC® (UPLC®) chromatography followed by tandem-MS (MS/MS) detection.
Brain homogenate was prepared by homogenizing the brain 1:4 (v/v) with water:2-propanol:DMSO (50:30:20 v/v/v) followed by centrifugation and collection of the supernatant. Calibration standards and QC samples were prepared using a Hamilton robot. 150 μL of ISTD in acetonitrile (1 ng/mL ISTD) was added to 25 μL of calibration standards, QC samples and test samples (plasma and brain homogenate) using a Biomek robot. After centrifugation (6200 g, 4° C., 20 min) 100 μL supernatant from each sample was transferred to a new plate and mixed with 100 μL water with 0.1% formic acid using a Biomek robot (method file InVivo transfer). After a quick centrifugation (6200 g, 4° C., 5 min) the samples were placed in the auto-sampler.
MS/MS detection was done with an Applied Biosystems Sciex API 4000 instrument in positive-ion electrospray ionisation mode. TC and ISTD were detected at a parent>daughter mass to charge ratio (m/z). Nitrogen was used for the nebulizer and collision gases. The peak area correlated linearly with the plasma and brain concentration of the analytes in the range of 1.00-1000 ng/mL plasma and 5.00-5000 ng/g brain (corrected for dilution). If the plasma/brain sample drug concentration was above 1000 ng/mL or 5000 ng/g, the sample was diluted appropriately in blank plasma/blank brain homogenate before analysis.

Kp at 3 h ([1]; 10 mg/kg p.o.) | Kp at 3 h ([1]; 30 mg/kg p.o.) | concentration at 3 h ([1]; Brain Rat, 10 mg/kg p.o.) [ng/g] | concentration at 3 h ([1]; Brain Rat, 30 mg/kg p.o.) [ng/g] | concentration at 3 h ([1]; Plasma Rat, 10 mg/kg p.o.) [ng/g] | concentration at 3 h ([1]; Plasma Rat, 30 mg/kg p.o.) [ng/g] | Kp at 3 h ([1]; 3 mg/kg p.o.) | concentration at 3 h ([1]; Brain Rat, 3 mg/kg p.o.) [ng/g] | concentration at 3 h ([1]; Plasma Rat, 3 mg/kg p.o.) [ng/g] | Compound | Aβ40 reduction (Aβ40; Brain Rat, 10 mg/kg p.o.) [%] | Aβ40 reduction (Aβ40; Brain Rat, 30 mg/kg p.o.) [%] | Aβ40 reduction (Aβ40; Plasma Rat, 10 mg/kg p.o.) [%] | Aβ40 reduction (Aβ40; Plasma Rat, 30 mg/kg p.o.) [%] | Aβ40 reduction (Aβ40; Brain Rat, 3 mg/kg p.o.) [%] | Aβ40 reduction (Aβ40; Plasma Rat, 3 mg/kg p.o.) [%]
1.4 | 0.83 | 671 | 1510 | 489 | 1830 |  |  |  | COc1ccc(C(=O)Nc2ccc(F)c([C@@]3(C)N=C(N)[C@@](C)(F)C[C@@H]3F)c2)nc1 [Compound 3, N-(3-((2R,3S,5S)-6-amino-3,5-difluoro-2,5-dimethyl-2,3,4,5-tetrahydropyridin-2-yl)-4-fluorophenyl)-5-methoxypicolinamide] | 35 | 61 | 24 | 53 |  | 
 |  |  |  |  |  | 2.2 | 610 | 272 | [2H]C([2H])([2H])Oc1cnc(C(=O)Nc2ccc(F)c([C@@]3(C)N=C(N)[C@@](C)(F)C[C@@H]3F)c2)cn1 [Compound 20, N-(3-((2R,3S,5S)-6-amino-3,5-difluoro-2,5-dimethyl-2,3,4,5-tetrahydropyridin-2-yl)-4-fluorophenyl)-5-(methoxy-d3)pyrazine-2-carboxamide] |  |  |  |  | 52 | 64
2.2 | 2.3 | 1020 | 2770 | 473 | 1200 |  |  |  | [2H]C([2H])([2H])Oc1ccc(C(=O)Nc2ccc(F)c([C@@]3(C)N=C(N)[C@@](C)(F)C[C@@H]3F)c2)nc1 [Compound 19, N-(3-((2R,3S,5S)-6-amino-3,5-difluoro-2,5-dimethyl-2,3,4,5-tetrahydropyridin-2-yl)-4-fluorophenyl)-5-(methoxy-d3)picolinamide] | 56 | 66 | 49 | 53 |  | 
